System: patients qualified under the DSM-5 definition of autism
Test: Example 4: DSM-V score
Type: in vivo, human
Parameters: DSM-V TOTAL / DSM-V social / DSM-V communication / DSM-V relationships / DSM-V behavior: scale not given here
Conditions: for DSM V relationships / DSM V communication / DSM V social / DSM V behavior / DSM V TOTAL: PT RS; for DSM V relationships: initial 1; for DSM V communication / DSM V social: initial 5; for DSM V TOTAL: initial 21
Procedure: α-methyl-DL tyrosine (AMPT) was administered to 3 patients. This group of patients was qualified under the DSM-5 definition of autism and treated. The Aberrant Behavior Checklist-Community (ABC-C), Autism Diagnostic Observation Schedule (ADOS), Conners Parent Rating Scale (CPRS), and General Clinical Impressions scale were used to assess the disease. Videos were taken at each visit.

`CC(N)(Cc1ccc(O)cc1)C(=O)O` (racemic) [L1-79, α-methyl-DL-tyrosine] was tested, and the DSM-V social (PT LR, Day 7, initial 9) was 5, the DSM-V communication (PT LR, Day 7, initial 10) was 4 and the DSM-V relationships (PT LR, Day 7, initial 11) was 4. For the same compound, the DSM-V behavior (PT LR, Day 7, initial 12) was 12, the “DSM-V TOTAL” value (PT LR, Day 7, initial 42) was 27 and the DSM-V social (PT LR, Day 14, initial 9) was 3. It also gave a DSM-V communication (PT LR, Day 14, initial 10) of 3, a DSM-V relationships (PT LR, Day 14, initial 11) of 3 and a DSM-V behavior (PT LR, Day 14, initial 12) of 12. For the same compound, the “DSM-V TOTAL” value (PT LR, Day 14, initial 42) was 21, the DSM-V social (PT LR, Day 21, initial 9) was 2 and the DSM-V communication (PT LR, Day 21, initial 10) was 2. For the same compound, the DSM-V relationships (PT LR, Day 21, initial 11) was 2, the DSM-V behavior (PT LR, Day 21, initial 12) was 12 and the “DSM-V TOTAL” value (PT LR, Day 21, initial 42) was 18. For the same compound, the DSM-V social (PT LR, Day 28, initial 9) was 2, the DSM-V communication (PT LR, Day 28, initial 10) was 2 and the DSM-V relationships (PT LR, Day 28, initial 11) was 2. For the same compound, the DSM-V behavior (PT LR, Day 28, initial 12) was 12, the “DSM-V TOTAL” value (PT LR, Day 28, initial 42) was 18 and the “DSM V relationships” value (Day 7) was 0. The “DSM V communication” value (Day 7) was 4, the “DSM V social” value (Day 7) was 3 and the “DSM V behavior” value (Day 7, initial 10) was 8. For the same compound, the “DSM V TOTAL” value (Day 7) was 15, the “DSM V relationships” value (Day 14) was 0 and the “DSM V communication” value (Day 14) was 1.5. For the same compound, the “DSM V social” value (Day 14) was 1.5, the “DSM V behavior” value (Day 14, initial 10) was 5 and the “DSM V TOTAL” value (Day 14) was 8. The “DSM V relationships” value (Day 21) was 0, the “DSM V communication” value (Day 21) was 1.5 and the “DSM V social” value (Day 21) was 1. For the same compound, the “DSM V behavior” value (Day 21, initial 10) was 4, the “DSM V TOTAL” value (Day 21) was 6.5 and the “DSM V relationships” value (Day 28) was 0. The “DSM V communication” value (Day 28) was 1.5, the “DSM V social” value (Day 28) was 1 and the “DSM V behavior” value (Day 28, initial 10) was 3. For the same compound, the “DSM V TOTAL” value (Day 28) was 5.5, the DSM-V communication (PT WC, Day 7, initial 3) was 0 and the DSM-V relationships (PT WC, Day 7, initial 6) was 2. The DSM-V social (PT WC, Day 7, initial 6) was 6, the DSM-V behavior (PT WC, Day 7, initial 11) was 9 and the “DSM-V TOTAL” value (PT WC, Day 7, initial 26) was 17. It also gave a DSM-V communication (PT WC, Day 14, initial 3) of 0, a DSM-V relationships (PT WC, Day 14, initial 6) of 2 and a DSM-V social (PT WC, Day 14, initial 6) of 4. The DSM-V behavior (PT WC, Day 14, initial 11) was 8, the “DSM-V TOTAL” value (PT WC, Day 14, initial 26) was 14 and the DSM-V communication (PT WC, Day 21, initial 3) was 0. The DSM-V relationships (PT WC, Day 21, initial 6) was 2, the DSM-V social (PT WC, Day 21, initial 6) was 2 and the DSM-V behavior (PT WC, Day 21, initial 11) was 8. For the same compound, the “DSM-V TOTAL” value (PT WC, Day 21, initial 26) was 12, the DSM-V communication (PT WC, Day 28, initial 3) was 0 and the DSM-V relationships (PT WC, Day 28, initial 6) was 2. The DSM-V social (PT WC, Day 28, initial 6) was 2, the DSM-V behavior (PT WC, Day 28, initial 11) was 7 and the “DSM-V TOTAL” value (PT WC, Day 28, initial 26) was 11.

Reference: patent publication US12453709B2, “Compositions and methods for treating autism” (priority 2013, dated 2025)
